Test results published in patent US20240277813A1, “TREATMENT OF OBESITY AND OBESITY-RELATED DISORDERS” (ANTAG THERAPEUTICS APS, priority 2021, published 2024).
“Also recorded” adds a separate entry of the source. *1 amine or outer side, *2 acyl side, *3 side chain or, on linkers, in order; H or OH if unused. Where a SMILES comes first, the peptide text is derived from it. Where no end group is shown, it is not given here. Side-chain parts run from the residue outwards. [ ]: non-standard residue; d: D form. The star is where a group is joined. C18 diacid = O=C(O)CCCCCCCCCCCCCCCCC(=O)*; C16 diacid = O=C(O)CCCCCCCCCCCCCCC(=O)*; γGlu = O=C(O)[C@H](CCC(=O)[*:2])N[*:1]; Glutaryl = O=C(CCCC(=O)[*:2])[*:1]; Nle = CCCC[C@H](N)C(=O)O; AEEA = NCCOCCOCC(=O)O; Aib = CC(C)(N)C(=O)O

What was measured:
[1] = tested on: mice on a fat-diet, or lean mice; details: cited from earlier work; for absolute body weight or cumulative food intake: chronic administration, compared with vehicle control
[2] = molecular target: DPP-IV enzyme (Homo sapiens, UniProt P27487); details: cited from earlier work
DPP-IV enzyme, sequence (P27487 whole entry, species assumed): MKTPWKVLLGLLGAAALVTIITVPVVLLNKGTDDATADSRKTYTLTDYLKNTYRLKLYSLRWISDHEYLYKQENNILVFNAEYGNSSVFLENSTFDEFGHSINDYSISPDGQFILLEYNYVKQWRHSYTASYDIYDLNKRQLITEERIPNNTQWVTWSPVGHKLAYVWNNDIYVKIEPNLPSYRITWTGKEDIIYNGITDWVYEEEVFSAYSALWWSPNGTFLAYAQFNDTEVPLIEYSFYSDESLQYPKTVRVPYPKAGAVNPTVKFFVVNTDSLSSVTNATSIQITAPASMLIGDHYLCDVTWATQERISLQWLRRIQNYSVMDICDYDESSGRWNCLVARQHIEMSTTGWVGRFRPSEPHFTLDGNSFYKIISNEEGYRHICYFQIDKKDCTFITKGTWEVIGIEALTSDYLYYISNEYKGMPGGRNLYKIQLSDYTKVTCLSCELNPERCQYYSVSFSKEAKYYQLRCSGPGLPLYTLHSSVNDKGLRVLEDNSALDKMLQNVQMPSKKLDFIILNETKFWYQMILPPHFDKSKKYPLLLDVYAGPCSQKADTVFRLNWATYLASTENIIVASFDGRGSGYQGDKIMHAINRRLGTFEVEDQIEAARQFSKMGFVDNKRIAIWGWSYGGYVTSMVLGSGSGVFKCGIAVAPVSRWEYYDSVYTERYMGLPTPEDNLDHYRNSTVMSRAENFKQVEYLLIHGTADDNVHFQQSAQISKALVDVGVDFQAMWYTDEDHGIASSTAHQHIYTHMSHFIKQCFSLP

[3] = tested on: high-fat mice; details: daily intraperitoneal injections, cited from earlier work; for glucose tolerance / glycaemic control: compared with high-fat controls
[4] = in vivo
Source text: During the treatment period all monkeys received daily SC injections after breakfast with the respective test substance for a total of 42 days. […] All treatment groups and the vehicle group received injection volumes based on individual body weights. After the 42 days of treatment, body weight, food intake, and blood/serum chemistries were monitored for an additional 14-day washout period. Blood collections and dosing occurred in conscious monkeys for the entire study.

[5] = tested on: High fat diet (HFD) induced obese cynomolgus monkeys; assay: cynomolgus monkey efficacy study, 42 days daily SC treatment; assay type: in vivo, cynomolgus monkeys (Macaca fascicularis)
Experimental: Cynomolgus monkeys (Macaca fascicularis) were fed a HFD consisting of 50 g of KBI proprietary standard monkey formula feed in the morning 9:00 to 10:00 AM, 150 g apple in the afternoon 14:00 to 15:00 PM, and 100 g of KBI proprietary HFD in the evening 16:00 to 17:00 PM. Water was provided ad libitum. […] Values represent means±SEM, n=9-10 per group.
High fat diet (HFD) induced obese cynomolgus monkeys (Macaca fascicularis, male, >7.5 kg, fasting glucose<90 mg/dL, fasting insulin<60 μU/mL, >8 years of age) were obtained from KBI's stock colony. Lighting in animal holding rooms was maintained on 12:12 hour light:dark cycle, and the ambient temperature and humidity range was set at 18-29 degrees C. and 30 to 90%, respectively. The monkeys were individually housed in cages arranged to allow visual and auditory contacts with conspecifics. The monkeys were provided with cage toys for environmental enrichment to ensure adequate welfare and psychological well-being.
8 days prior to the treatment phase, and KBI's proprietary HFD was provided adlibitum which is in contrast to the defined amount of 100 g that the monkeys were normally served. During the entire treatment phase (42 days) and washout period (14 days) monkeys were provided three meals per day consisting of 50 g of KBI proprietary standard monkey formula feed in the morning 9:00-10:00 AM, one regular apple (150 g) in the afternoon 14:00-15:00 PM, and ad libitum of KBI proprietary HFD in the evening 16:00-17:00 PM. Water was provided adlibitum.
The cynomolgus monkeys were acclimated/trained to experimental procedures for three weeks followed by one week with continued training and introduction of adlibitum HFD prior to start of treatment. The monkeys were randomly sorted into six separate dose groups with 10 animals each based on acclimation data sets.
Daily food intake measurements were recorded during the entire duration of the study from the acclimation period until the end of the washout period. After each feeding time, all of the remaining food was withdrawn and intake was determined by weighing the left-over food.
Body weights were measured every third to fourth day during the study period. The monkeys were non-sedated and were transferred into small transfer cages and transported to a weighing scale. The tare weights of the transfer cages were determined prior to weighing the monkeys inside the transfer cages. The monkeys were weighed twice inside the transfer cages and recordings were made to the nearest 0.1 kg.
Whole blood sample was collected from a peripheral vein after an overnight fast according to the specified time points and transferred directly into serum separation tubes (SST). Serum was separated by centrifugation at 2500×g for 10 min at 4° C. Insulin, CTX and PTH levels were analyzed using the Cobas e411 Immunology analyzer. Other parameters were analyzed using the Roche C311 or C501 biochemical analyzer.

For “mouse GIP(3-30)NH2 (EGTFISDYSIAMDKIRQQDFVNWLLAQR-NH2; UniProt P48756 46-73, looked up, fragment) [GIPA-1, GIPR antagonist GIP peptide of West et al. 2021]”, the “absolute body weight or cumulative food intake” value [1] is listed as “no effect”.

For “NaAc-K10[γEγE-C16]-Arg18-hGIP(5-42) [GIPA-2]”, the “absolute body weight or cumulative food intake” value [1] is given as “no effect”, the “GIPR antagonist potency in mice (comparison)” value ([1]; in mice) is given as “more potent antagonist than GIPA-1” and the “glucose stimulated insulin secretion” value ([1]; in mice) is given as “inhibited glucose stimulated insulin secretion”.

For “GLP-1: 31-amino acid peptide derived from the proglucagon gene, secreted by intestinal L-cells”, the half-life [2] is given as “approximately 2 minutes”.

In the case of (Pro3)GIP, the glucose tolerance [3] is listed as “significantly improved glucose tolerance”, the glycaemic control [3] is listed as “restored glycaemic control to normal levels” and the “food intake and body weights” value [3] is listed as “not affected”.

For (d-Ala8)GLP-1, the glucose tolerance [3] is listed as “significantly improved glucose tolerance”, the glycaemic control [3] is listed as “restored glycaemic control to normal levels” and the “food intake and body weights” value [3] is listed as “not affected”.

With `CCCC[C@H](NC(=O)C(C)(C)NC(=O)[C@@H](NC(=O)[C@H](CO)NC(=O)[C@H](Cc1ccc(O)cc1)NC(=O)[C@H](CCC(=O)O)NC(=O)[C@H](CO)NC(=O)[C@@H](NC(=O)[C@H](Cc1ccccc1)NC(=O)[C@@H](NC(=O)CNC(=O)CCCC(=O)O)[C@@H](C)O)[C@@H](C)CC)[C@@H](C)CC)C(=O)N[C@@H](CCC(=O)O)C(=O)N[C@@H](CCCCN)C(=O)N[C@H](C(=O)N[C@@H](CCCCNC(=O)COCCOCCNC(=O)COCCOCCNC(=O)CC[C@H](NC(=O)CCCCCCCCCCCCCCCCC(=O)O)C(=O)O)C(=O)N[C@@H](CCC(N)=O)C(=O)N[C@@H](CCC(N)=O)C(=O)N[C@@H](CCC(=O)O)C(=O)N[C@@H](Cc1ccccc1)C(=O)N[C@H](C(=O)N[C@@H](CCC(=O)O)C(=O)N[C@@H](Cc1c[nH]c2ccccc12)C(=O)N[C@@H](CC(C)C)C(=O)N[C@@H](CC(C)C)C(=O)N[C@@H](C)C(=O)N[C@@H](CCC(N)=O)C(=O)N[C@@H](CCCCN)C(=O)N1CCC[C@H]1C(=O)N[C@@H](CO)C(=O)N[C@@H](CO)C(=O)NCC(=O)N[C@@H](C)C(=O)N1CCC[C@H]1C(=O)N1CCC[C@H]1C(=O)N1CCC[C@H]1C(=O)N[C@@H](CO)C(=O)O)C(C)C)[C@@H](C)CC` [Compound 2] (Glutaryl-GTFISEYSI[Aib][Nle]EKIK([AEEA-AEEA-γGlu-C18 diacid])QQEFVEWLLAQKPSSGAPPPS-OH) the “half life (in words)” value [4] was “long half live”.

For “EGTFISEYSIAibLEKIKQQEFVEWLLAQKPSSGAPPPS-C16-diacid/18K (GIP(3-30)+Cex(31-39) [D9E;A13Aib;M14L;D15E;H18K;D21E;N24E]) (EGTFISEYSI[Aib]LEKIK(C16 diacid)QQEFVEWLLAQKPSSGAPPPS; ends and bridges not checked) [Compound 1]”, the “body weight during the study period (in words)” value ([5]; 42 days treatment, placebo gained 9%) was “maintained body weight; also recorded: no change in weight”, the “fasting triglycerides (in words)” value ([5]; FIG. 1D) was “reduced fasting triglycerides” and the “average HOMA-IR (Homeostatic Model Assessment for Insulin Resistance)” value ([5]; at day 43, FIG. 1C, placebo 25.1) was 13.0. The “reduction in LDL-c (individual %-change from predose)” value ([5]; from predose) was 26%.
